Data taken from patent US6531628B1, “Substantive water-soluble 2-hydroxy sulfobetaines of cinnamidoalkylamines” (Galaxy Surfactants Ltd., priority 2001, dated 2003).
Entries after “also recorded” stand apart in the source; their conditions may differ.

Columns and labels:
[1] = Molar extinction coefficient (UV absorption); assay type: physicochemical; conditions: at λmax 306 nm in water
[2] = Compatibility with anionic surfactant in formulation; assay type: physicochemical; conditions: sodium lauryl ether sulphate based transparent shampoo / transparent bathing bar; N,N-dimethyl ammonium)-2-hydroxy propane-1-sulph
Description: The major ingredients were mixed with heating to 50° C. until a uniform homogeneous mixture was formed. The resulting mixture was then cooled to room temperature with continuous stirring. The required chelating agent, colour, perfume were added. The viscosity was adjusted to 2500 cps with sodium chloride.
All ingredients were heated together under stirring to 70° C. till the reaction mass became homogenous and transparent. The reaction mass was cooled to 40° C. and the required amounts of chelating agents, perfume and colour were added. The molten mass was cast in moulds of desired shape to yield transparent bathing bar.

**Q.** For `COc1ccc(C=CC(=O)NCCC[N+](C)(C)CC(O)CS(=O)(=O)[O-])cc1` (centres unmarked) [Example I, 3-(N-p-Methoxy Cinnamidopropyl, N,N-Dimethyl Ammonium)-2-hydroxy Propane-1-sulphonate], which “molar extinction coefficient, ∈” value [1] is on record?
**A.** Its value is 24,000.

**Q.** And the “compatibility with anionic surfactant” value [2]?
**A.** Its value is “completely compatible; also recorded: total compatibility”.
